In US20020002171A1, “Materials and methods for killing nematodes and nematode eggs” (priority 2000, published 2002):

Tested on: Caenorhabditis elegans
Assay: C. elegans L1 nematicidal dose response in 96-well plates, 5 day visual score (Example 2; same procedure for Example 7, Table 3)
Type: in vivo
Set-up: key to 5 Day Visual Score V1 / 5 Day Visual Score V2 / 5 Day Visual Score V3 / 5 Day Visual Score V4 / 5 Day Visual Score V6 / 5 Day Visual Score V5 / Initial HTS Run Visual Score / Follow-up HTS Run Visual Score: Dead: only stiff L1s (no movement); Dead (L4): worms are dead, but at a later larval stage; majority of worms are L1 (based on size) worms move when plate is tapped; majority of worms are L2 (based on size); majority of worms are L3 (based on size); majority of worms are L4 (based on size); AD: majority of worms are adult; #AD: 5 adult worms or less; B!: sterile (0-25 progeny); B: low broodsize (25-100 progeny); ˜B: moderate broodsize (100-250 progeny); <: reduced broodsize (250-500 progeny); OK: no effect (˜1000+ progeny)
Details: for 5 Day Visual Score V1 / 5 Day Visual Score V3 / 5 Day Visual Score V4 / 5 Day Visual Score V5 / 5 Day Visual Score V6 / 5 Day Visual Score V2: dose response; for 5 Day Visual Score V1: dilution V1, day 5; for 5 Day Visual Score V3: dilution V3, day 5; for 5 Day Visual Score V4: dilution V4, day 5; for 5 Day Visual Score V5: dilution V5, day 5; for 5 Day Visual Score V6: dilution V6, day 5; for 5 Day Visual Score V2: dilution V2, day 5
Protocol: Caenorhabditis elegans adults were grown on Nematode Growth Medium (NGM) until they produced eggs, then the adults were removed.
The eggs were allowed to hatch, and the L1 larvae collected. See The Nematode Caenorhabditis elegans (1988) Cold Spring Harbor Laboratory Press. Using a Matrix Programmable Pipette, the L1s were distributed into 96-well tissue culture plates, 20 L1 in 50 μl NGM per well. Antibiotic/Antimyoticwas added to each well, and 1% by weight E. coli strain HB101. The subject anthelmintic compounds were stored at 5 mM in 100% DMSO. 0.7 μl of compounds 1-31 were added to the left-most column of wells to yield a final concentration of 70 μM in 1.4% DMSO, with 1.4% DMSO only as the control. The compounds were then subjected to 5 more 3-fold dilutions from left to right to yield 6 column concentrations of 70 μM, 23.3 μM, 7.8 μM, 2.6 μM, 0.9 μM, and 0.3 μM. Plates were stored in air-tight Rubbermaid plastic boxes at 20° C. The nematodes had cleared all control wells by day 4, and nematode viability was scored by visual examination under a 100× dissecting microsope on day 5. A visual viability scoring system was used as follows:
Column V1 has a compound concentration of 70 μM with sequential 3-fold dilutions reported in columns V2, V3, V4, V5, and V6, respectively, such that the V6 concentration was 0.3 μM.
The nematicidal activity of anthelmintic Compositions 48-168 were determined in accordance with the procedure outlined in Example 2.

Compound	Follow-up HTS Run % Run [%]	Follow-up HTS Run Visual Score	Follow-up HTS Run mOD [mOD]	Initial HTS Run % Run [%]	Initial HTS Run Visual Score	Initial HTS Run mOD [mOD]	5 Day Visual Score V1	5 Day Visual Score V3	5 Day Visual Score V4	5 Day Visual Score V5	5 Day Visual Score V6	5 Day Visual Score V2
C=CCN(CC=C)c1nc(N2CCN(c3c(C)cccc3C)CC2)ns1 [compound 232]	68	Dead/1AD/B	109	120	2AD/B	132	Dead	OK (no effect (˜1000+ progeny))	OK (no effect (˜1000+ progeny))	OK (no effect (˜1000+ progeny))	OK (no effect (˜1000+ progeny))	–
CCOC(=O)CCN(Cc1ccccc1)c1nc(N2CCN(c3c(C)cccc3C)CC2)ns1 [compound 233]	93	Dead	150	113	1AD/B	124	Dead	˜B (moderate broodsize (100-250 progeny))	OK (no effect (˜1000+ progeny))	OK (no effect (˜1000+ progeny))	OK (no effect (˜1000+ progeny))	–
Cc1cccc(C)c1N1CCN(c2nsc(N(C)CCc3ccccc3)n2)CC1 [compound 234]	63	2AD/B	102	120	3AD/B	132	Dead	˜B (moderate broodsize (100-250 progeny))	< (reduced broodsize (250-500 progeny))	OK (no effect (˜1000+ progeny))	OK (no effect (˜1000+ progeny))	–
CCCCN(CC)c1nc(N2CCN(c3ncccn3)CC2)ns1 [compound 235]	127	L2 - 1/2 Dead	205	128	Dead (L3?)	141	Dead	OK (no effect (˜1000+ progeny))	OK (no effect (˜1000+ progeny))	OK (no effect (˜1000+ progeny))	OK (no effect (˜1000+ progeny))	#AD/˜B
CCCCN(CC)c1nc(N2CCN(c3ccc(F)cc3)CC2)ns1 [compound 236]	123	Dead	198	136	1AD/B	150	Dead	–	< (reduced broodsize (250-500 progeny))	< (reduced broodsize (250-500 progeny))	OK (no effect (˜1000+ progeny))	–
CCN(Cc1ccccc1)c1nc(N2CCN(c3ccc(F)cc3)CC2)ns1 [compound 237]	117	–	189	133	–	146	L1	L1	< (reduced broodsize (250-500 progeny))	OK (no effect (˜1000+ progeny))	OK (no effect (˜1000+ progeny))	L1
CCOC(=O)CCN(Cc1ccccc1)c1nc(N2CCN(c3ccc(F)cc3)CC2)ns1 [compound 238]	122	L4/AD/B	197	135	L4/Ad/B!	148	L1	< (reduced broodsize (250-500 progeny))	< (reduced broodsize (250-500 progeny))	OK (no effect (˜1000+ progeny))	OK (no effect (˜1000+ progeny))	–
CCCCN(Cc1ccccc1)c1nc(N2CCCC(C(=O)N(CC)CC)C2)ns1 (stereo not drawn) [compound 239]	132	B (low broodsize (25-100 progeny))	212	134	L4/AD/B!	147	L2	OK (no effect (˜1000+ progeny))	OK (no effect (˜1000+ progeny))	OK (no effect (˜1000+ progeny))	OK (no effect (˜1000+ progeny))	B (low broodsize (25-100 progeny))
Fc1ccc(CCNc2nsc(N3CCN(c4ccc(F)cc4)CC3)n2)cc1 [compound 240]	86	Dead	138	101	–	111	Dead	–	˜B (moderate broodsize (100-250 progeny))	< (reduced broodsize (250-500 progeny))	OK (no effect (˜1000+ progeny))	L1
CCN(Cc1ccccc1)c1nc(NCCc2ccc(F)cc2)ns1 [compound 241]	88	B (low broodsize (25-100 progeny))	141	114	–	125	–	OK (no effect (˜1000+ progeny))	OK (no effect (˜1000+ progeny))	OK (no effect (˜1000+ progeny))	OK (no effect (˜1000+ progeny))	˜B (moderate broodsize (100-250 progeny))
CCOC(=O)CCN(Cc1ccccc1)c1nc(NCCc2ccc(F)cc2)ns1 [compound 242]	87	–	140	106	Dead (L3?)	117	–	OK (no effect (˜1000+ progeny))	OK (no effect (˜1000+ progeny))	OK (no effect (˜1000+ progeny))	OK (no effect (˜1000+ progeny))	B (low broodsize (25-100 progeny))
CN(CCc1ccccc1)c1nc(NCCc2ccc(F)cc2)ns1 [compound 243]	86	B (low broodsize (25-100 progeny))	139	115	L4/AD/B!	127	–	OK (no effect (˜1000+ progeny))	OK (no effect (˜1000+ progeny))	OK (no effect (˜1000+ progeny))	OK (no effect (˜1000+ progeny))	B (low broodsize (25-100 progeny))
CC1(C)CC(O)CC(C)(CNc2nsc(N3CCN(c4ccc(F)cc4)CC3)n2)C1 (stereo not drawn) [compound 244]	104	Dead	167	125	Dead	138	Dead	< (reduced broodsize (250-500 progeny))	OK (no effect (˜1000+ progeny))	OK (no effect (˜1000+ progeny))	OK (no effect (˜1000+ progeny))	Dead
CC1CC(C)CN(c2nc(NCc3c(F)cccc3F)ns2)C1 (stereo not drawn) [compound 245]	117	B! (sterile (0-25 progeny))	189	103	B!-Few Eggs	113	L2/Dead(L3)	< (reduced broodsize (250-500 progeny))	OK (no effect (˜1000+ progeny))	OK (no effect (˜1000+ progeny))	OK (no effect (˜1000+ progeny))	#AD/˜B
